In the NIST ThermoML archive (doi:10.1016/j.jct.2015.02.024):
Numbers after ± are expanded uncertainties.

Tests used:
[1] = for viscosity / mass density: 101.33 kPa, Liquid; for viscosity: Falling or rolling sphere viscometry; for mass density: Vibrating tube method
[2] = activity coefficient (dimensionless); of the first substance listed, at infinite dilution; xn = mol fraction of the nth substance listed; conditions: 101 kPa, Liquid, Chromatography, x1 = 0

Row | Compound | activity coefficient ([2]; 318.15 K) | activity coefficient ([2]; 328.15 K) | activity coefficient ([2]; 338.15 K) | activity coefficient ([2]; 348.15 K) | activity coefficient ([2]; 358.15 K) | activity coefficient ([2]; 368.15 K) | further results
1 | C[N+]1(CCCO)CCOCC1.O=S(=O)([N-]S(=O)(=O)C(F)(F)F)C(F)(F)F |  |  |  |  |  |  | viscosity ([1]; 298.15 K): 1183 ± 130 mPa·s; mass density ([1]; 298.15 K): 1536.09 ± 4.6 kg/m3; viscosity ([1]; 308.15 K): 565.7 ± 47 mPa·s; mass density ([1]; 308.15 K): 1527.32 ± 4.6 kg/m3; viscosity ([1]; 318.15 K): 280.7 ± 17 mPa·s; mass density ([1]; 318.15 K): 1518.74 ± 4.5 kg/m3; viscosity ([1]; 328.15 K): 156.1 ± 6.8 mPa·s; mass density ([1]; 328.15 K): 1510.14 ± 4.5 kg/m3; viscosity ([1]; 338.15 K): 94.49 ± 3 mPa·s; mass density ([1]; 338.15 K): 1501.59 ± 4.4 kg/m3; viscosity ([1]; 348.15 K): 61.14 ± 1.6 mPa·s; mass density ([1]; 348.15 K): 1493.08 ± 4.4 kg/m3; viscosity ([1]; 358.15 K): 37.79 ± 1 mPa·s; mass density ([1]; 358.15 K): 1484.63 ± 4.3 kg/m3; viscosity ([1]; 368.15 K): 27.09 ± 0.71 mPa·s; mass density ([1]; 368.15 K): 1476.24 ± 4.3 kg/m3; Normal melting temperature ([1]; Crystal, DTA): 14 ± 0.4 °C; Glass transition temperature ([1]; Glass, DTA): -52.5 ± 0.4 °C
2 | CCCCCCCCC [nonane] + C[N+]1(CCCO)CCOCC1.O=S(=O)([N-]S(=O)(=O)C(F)(F)F)C(F)(F)F | 445 ± 31 | 385 ± 26 | 332 ± 23 | 287 ± 20 | 249 ± 17 | 224 ± 15 | 
3 | C=CCCCCCC [oct-1-ene] + C[N+]1(CCCO)CCOCC1.O=S(=O)([N-]S(=O)(=O)C(F)(F)F)C(F)(F)F | 133 ± 9 | 117 ± 8 | 106 ± 7 | 94.6 ± 6.5 | 85.2 ± 5.8 | 77.2 ± 5.3 | 
4 | Cc1ccccc1C [1,2-dimethylbenzene] + C[N+]1(CCCO)CCOCC1.O=S(=O)([N-]S(=O)(=O)C(F)(F)F)C(F)(F)F | 5.73 ± 0.39 | 5.76 ± 0.39 | 5.78 ± 0.39 | 5.81 ± 0.4 | 5.83 ± 0.4 | 5.86 ± 0.4 | 
5 | C1CCCCCCC1 [cyclooctane] + C[N+]1(CCCO)CCOCC1.O=S(=O)([N-]S(=O)(=O)C(F)(F)F)C(F)(F)F | 110 ± 8 | 93.7 ± 6.4 | 83.6 ± 5.7 | 71.9 ± 4.9 | 64.4 ± 4.4 | 58.6 ± 4 | 
6 | CCCC(C)=O [pentan-2-one] + C[N+]1(CCCO)CCOCC1.O=S(=O)([N-]S(=O)(=O)C(F)(F)F)C(F)(F)F | 1.24 ± 0.08 | 1.29 ± 0.08 | 1.34 ± 0.09 | 1.4 ± 0.09 | 1.44 ± 0.09 | 1.48 ± 0.1 | 
7 | C=CCCCCCCCC [1-decene] + C[N+]1(CCCO)CCOCC1.O=S(=O)([N-]S(=O)(=O)C(F)(F)F)C(F)(F)F | 307 ± 21 | 269 ± 18 | 243 ± 17 | 218 ± 15 | 194 ± 13 | 176 ± 12 | 
8 | CCCCCCCC [octane] + C[N+]1(CCCO)CCOCC1.O=S(=O)([N-]S(=O)(=O)C(F)(F)F)C(F)(F)F | 315 ± 22 | 265 ± 18 | 230 ± 16 | 199 ± 14 | 172 ± 12 | 152 ± 10 | 
9 | CC(C)CO [2-methyl-1-propanol] + C[N+]1(CCCO)CCOCC1.O=S(=O)([N-]S(=O)(=O)C(F)(F)F)C(F)(F)F | 3.25 ± 0.22 | 3.08 ± 0.21 | 2.94 ± 0.2 | 2.78 ± 0.19 | 2.65 ± 0.18 | 2.54 ± 0.17 | 
10 | CCC(C)O (stereo unspecified) [butan-2-ol] + C[N+]1(CCCO)CCOCC1.O=S(=O)([N-]S(=O)(=O)C(F)(F)F)C(F)(F)F | 2.59 ± 0.18 | 2.52 ± 0.17 | 2.46 ± 0.17 | 2.4 ± 0.16 | 2.34 ± 0.16 | 2.29 ± 0.16 | 
11 | CCOCC [diethyl ether] + C[N+]1(CCCO)CCOCC1.O=S(=O)([N-]S(=O)(=O)C(F)(F)F)C(F)(F)F | 4.94 ± 0.34 | 5 ± 0.34 | 5.05 ± 0.34 | 5.1 ± 0.35 | 5.14 ± 0.35 | 5.19 ± 0.35 | 
12 | C#CCCCCC [1-heptyne] + C[N+]1(CCCO)CCOCC1.O=S(=O)([N-]S(=O)(=O)C(F)(F)F)C(F)(F)F | 20 ± 1.4 | 19.2 ± 1.3 | 18.4 ± 1.3 | 17.6 ± 1.2 | 16.9 ± 1.2 | 16.3 ± 1.1 | 
13 | Cc1ccccc1 [toluene] + C[N+]1(CCCO)CCOCC1.O=S(=O)([N-]S(=O)(=O)C(F)(F)F)C(F)(F)F | 4.03 ± 0.27 | 4.08 ± 0.28 | 4.11 ± 0.28 | 4.16 ± 0.28 | 4.19 ± 0.29 | 4.22 ± 0.29 | 
14 | CC(C)=O [acetone] + C[N+]1(CCCO)CCOCC1.O=S(=O)([N-]S(=O)(=O)C(F)(F)F)C(F)(F)F | 0.486 ± 0.037 | 0.517 ± 0.039 | 0.543 ± 0.04 | 0.572 ± 0.041 | 0.596 ± 0.042 | 0.63 ± 0.04 | 
